Results from ChEMBL document CHEMBL2380247, “Synthesis and biological evaluation of novel aliphatic amido-quaternary ammonium salts for anticancer chemotherapy: part II” (2013).

Experiments:
Assay type in all cases: functional
PC-3 [1] = assay: Antiproliferative activity against human PC3 cells at 1 uM by SRB assay
HCT-15 [2] = assay: Antiproliferative activity against human HCT15 cells at 10 uM by SRB assay
NCI-H23 [3] = assay: Antiproliferative activity against human NCI-H23 cells at 0.3 uM by SRB assay
HCT-15 [4] = assay: Antiproliferative activity against human HCT15 cells by SRB assay
MDA-MB-231 [5] = assay: Antiproliferative activity against human MDA-MB-231 cells by SRB assay
HCT-15 [6] = assay: Antiproliferative activity against human HCT15 cells at 3 uM by SRB assay
NUGC-3 [7] = assay: Antiproliferative activity against human NUGC3 cells at 0.3 uM by SRB assay
ACHN [8] = assay: Antiproliferative activity against human ACHN cells at 1 uM by SRB assay
MDA-MB-231 [9] = assay: Antiproliferative activity against human MDA-MB-231 cells at 3 uM by SRB assay
MDA-MB-231 [10] = assay: Antiproliferative activity against human MDA-MB-231 cells at 0.1 uM by SRB assay
PC-3 [11] = assay: Antiproliferative activity against human PC3 cells at 0.1 uM by SRB assay
NCI-H23 [12] = assay: Antiproliferative activity against human NCI-H23 cells at 0.1 uM by SRB assay
NCI-H23 [13] = assay: Antiproliferative activity against human NCI-H23 cells at 10 uM by SRB assay
NCI-H23 [14] = assay: Antiproliferative activity against human NCI-H23 cells at 1 uM by SRB assay
NCI-H23 [15] = assay: Antiproliferative activity against human NCI-H23 cells by SRB assay
NUGC-3 [16] = assay: Antiproliferative activity against human NUGC3 cells by SRB assay
PC-3 [17] = assay: Antiproliferative activity against human PC3 cells at 10 uM by SRB assay
HCT-15 [18] = assay: Antiproliferative activity against human HCT15 cells at 0.1 uM by SRB assay
HCT-15 [19] = assay: Antiproliferative activity against human HCT15 cells at 1 uM by SRB assay
NCI-H23 [20] = assay: Antiproliferative activity against human NCI-H23 cells at 3 uM by SRB assay
PC-3 [21] = assay: Antiproliferative activity against human PC3 cells by SRB assay
ACHN [22] = assay: Antiproliferative activity against human ACHN cells by SRB assay
MDA-MB-231 [23] = assay: Antiproliferative activity against human MDA-MB-231 cells at 0.3 uM by SRB assay
HCT-15 [24] = assay: Antiproliferative activity against human HCT15 cells at 0.3 uM by SRB assay
MDA-MB-231 [25] = assay: Antiproliferative activity against human MDA-MB-231 cells at 1 uM by SRB assay
PC-3 [26] = assay: Antiproliferative activity against human PC3 cells at 0.3 uM by SRB assay
ACHN [27] = assay: Antiproliferative activity against human ACHN cells at 0.1 uM by SRB assay
PC-3 [28] = assay: Antiproliferative activity against human PC3 cells at 3 uM by SRB assay
MDA-MB-231 [29] = assay: Antiproliferative activity against human MDA-MB-231 cells at 10 uM by SRB assay
NUGC-3 [30] = assay: Antiproliferative activity against human NUGC3 cells at 10 uM by SRB assay
NUGC-3 [31] = assay: Antiproliferative activity against human NUGC3 cells at 0.1 uM by SRB assay
ACHN [32] = assay: Antiproliferative activity against human ACHN cells at 3 uM by SRB assay
ACHN [33] = assay: Antiproliferative activity against human ACHN cells at 0.3 uM by SRB assay
NUGC-3 [34] = assay: Antiproliferative activity against human NUGC3 cells at 3 uM by SRB assay
NUGC-3 [35] = assay: Antiproliferative activity against human NUGC3 cells at 1 uM by SRB assay
ACHN [36] = assay: Antiproliferative activity against human ACHN cells at 10 uM by SRB assay

| SMILES | growth, % of control at 1 µM (PC-3 [1]) | growth, % of control at 10 µM (HCT-15 [2]) | growth, % of control at 0.3 µM (NCI-H23 [3]) | GI50 (HCT-15 [4]) | GI50 (MDA-MB-231 [5]) | growth, % of control at 3 µM (HCT-15 [6]) | growth, % of control at 0.3 µM (NUGC-3 [7]) | growth, % of control at 1 µM (ACHN [8]) | growth, % of control at 3 µM (MDA-MB-231 [9]) | growth, % of control at 0.1 µM (MDA-MB-231 [10]) | growth, % of control at 0.1 µM (PC-3 [11]) | growth, % of control at 0.1 µM (NCI-H23 [12]) | growth, % of control at 10 µM (NCI-H23 [13]) | growth, % of control at 1 µM (NCI-H23 [14]) | GI50 (NCI-H23 [15]) | GI50 (NUGC-3 [16]) | growth, % of control at 10 µM (PC-3 [17]) | growth, % of control at 0.1 µM (HCT-15 [18]) | growth, % of control at 1 µM (HCT-15 [19]) | GI50 (PC-3 [21]) | other results |
| --- | --- | --- | --- | --- | --- | --- | --- | --- | --- | --- | --- | --- | --- | --- | --- | --- | --- | --- | --- | --- | --- |
| CCCCCCCCCCCCCCCC(=O)N(C)CC[N+](C)(C)CC | 10.8% | 17.8% | 84.4% | 1010 nM | 660 nM | 37.8% | 91.8% | 46.3% | 21.9% | 102% | 90% | 91.2% | -9.2% | 53.8% | 580 nM | 410 nM | -18.9% | 93.4% | 70.5% | 250 nM | growth, % of control at 3 µM (NCI-H23 [20]): 30.6%; GI50 (ACHN [22]): 580 nM; growth, % of control at 0.3 µM (MDA-MB-231 [23]): 101%; growth, % of control at 0.3 µM (HCT-15 [24]): 85.9%; growth, % of control at 1 µM (MDA-MB-231 [25]): 59.1%; growth, % of control at 0.3 µM (PC-3 [26]): 84%; growth, % of control at 0.1 µM (ACHN [27]): 110%; growth, % of control at 3 µM (PC-3 [28]): -14.5%; growth, % of control at 10 µM (MDA-MB-231 [29]): -4.7%; growth, % of control at 10 µM (NUGC-3 [30]): -11.1%; growth, % of control at 0.1 µM (NUGC-3 [31]): 99.1%; growth, % of control at 3 µM (ACHN [32]): 10.2%; growth, % of control at 0.3 µM (ACHN [33]): 95%; growth, % of control at 3 µM (NUGC-3 [34]): 9.7%; growth, % of control at 1 µM (NUGC-3 [35]): 38.2%; growth, % of control at 10 µM (ACHN [36]): -14.5% |
| CCCCCCCCCCCCCCCCCC(=O)NCC(C)(C)C[N+](C)(C)Cc1ccccc1 | 38.5% | 85.2% | 80.7% | > 10000 nM | 2150 nM | 100% | 101% | 87.4% | 58.9% | 95.5% | 101% | 93.4% | -25.8% | 70.6% | 910 nM | 1320 nM | -38.9% | 111% | 101% | 510 nM | growth, % of control at 3 µM (NCI-H23 [20]): 34.9%; GI50 (ACHN [22]): 2230 nM; growth, % of control at 0.3 µM (MDA-MB-231 [23]): 91.4%; growth, % of control at 0.3 µM (HCT-15 [24]): 102%; growth, % of control at 1 µM (MDA-MB-231 [25]): 86%; growth, % of control at 0.3 µM (PC-3 [26]): 95.6%; growth, % of control at 0.1 µM (ACHN [27]): 101%; growth, % of control at 3 µM (PC-3 [28]): -5.4%; growth, % of control at 10 µM (MDA-MB-231 [29]): 20.6%; growth, % of control at 10 µM (NUGC-3 [30]): -11%; growth, % of control at 0.1 µM (NUGC-3 [31]): 96.5%; growth, % of control at 3 µM (ACHN [32]): 74.1%; growth, % of control at 0.3 µM (ACHN [33]): 94%; growth, % of control at 3 µM (NUGC-3 [34]): 40.4%; growth, % of control at 1 µM (NUGC-3 [35]): 82%; growth, % of control at 10 µM (ACHN [36]): 0.64% |
| CCCCCCCCCCCCCC(=O)N(C)CC[N+](CC)(CC)CC | 11.7% | 43.1% | 76.2% | 4330 nM | 360 nM | 79.2% | 56.2% | 24.1% | 11.3% | 92.9% | 95.7% | 83.6% | -7.7% | 29% | 280 nM | 160 nM | -22.4% | 90.7% | 88% | 260 nM | growth, % of control at 3 µM (NCI-H23 [20]): 3.7%; GI50 (ACHN [22]): 230 nM; growth, % of control at 0.3 µM (MDA-MB-231 [23]): 86.6%; growth, % of control at 1 µM (MDA-MB-231 [25]): 33.2%; growth, % of control at 0.3 µM (PC-3 [26]): 84.7%; growth, % of control at 0.1 µM (ACHN [27]): 103%; growth, % of control at 3 µM (PC-3 [28]): -7.5%; growth, % of control at 10 µM (MDA-MB-231 [29]): -8%; growth, % of control at 10 µM (NUGC-3 [30]): -7.5%; growth, % of control at 0.1 µM (NUGC-3 [31]): 96.3%; growth, % of control at 3 µM (ACHN [32]): 9.4%; growth, % of control at 0.3 µM (ACHN [33]): 63.2%; growth, % of control at 3 µM (NUGC-3 [34]): -4.9%; growth, % of control at 1 µM (NUGC-3 [35]): 3%; growth, % of control at 10 µM (ACHN [36]): -15.5% |
| CCCCCCCCCCCCCCCCCCOP(=O)([O-])OC1CC[N+](C)(C)CC1 [PERIFOSINE] |  |  |  |  |  |  |  |  |  |  |  |  |  |  |  | 540 nM |  |  |  | 440 nM |  |
